From ChEMBL document CHEMBL1201862, “PubChem BioAssay data set” (2004)
Calls of active or inactive are those of the source.

Legend:
[1] = biological target: T1, Short transient receptor potential channel 4 (Mus musculus, UniProt Q9QUQ5); assay: calcium entry via TRPC4 opening agents – cell-based, HEK293 TRPC4/mu-opioid, Fluo-4 calcium, dose response (AID 434937); type: functional
T1 sequence (Q9QUQ5 whole entry): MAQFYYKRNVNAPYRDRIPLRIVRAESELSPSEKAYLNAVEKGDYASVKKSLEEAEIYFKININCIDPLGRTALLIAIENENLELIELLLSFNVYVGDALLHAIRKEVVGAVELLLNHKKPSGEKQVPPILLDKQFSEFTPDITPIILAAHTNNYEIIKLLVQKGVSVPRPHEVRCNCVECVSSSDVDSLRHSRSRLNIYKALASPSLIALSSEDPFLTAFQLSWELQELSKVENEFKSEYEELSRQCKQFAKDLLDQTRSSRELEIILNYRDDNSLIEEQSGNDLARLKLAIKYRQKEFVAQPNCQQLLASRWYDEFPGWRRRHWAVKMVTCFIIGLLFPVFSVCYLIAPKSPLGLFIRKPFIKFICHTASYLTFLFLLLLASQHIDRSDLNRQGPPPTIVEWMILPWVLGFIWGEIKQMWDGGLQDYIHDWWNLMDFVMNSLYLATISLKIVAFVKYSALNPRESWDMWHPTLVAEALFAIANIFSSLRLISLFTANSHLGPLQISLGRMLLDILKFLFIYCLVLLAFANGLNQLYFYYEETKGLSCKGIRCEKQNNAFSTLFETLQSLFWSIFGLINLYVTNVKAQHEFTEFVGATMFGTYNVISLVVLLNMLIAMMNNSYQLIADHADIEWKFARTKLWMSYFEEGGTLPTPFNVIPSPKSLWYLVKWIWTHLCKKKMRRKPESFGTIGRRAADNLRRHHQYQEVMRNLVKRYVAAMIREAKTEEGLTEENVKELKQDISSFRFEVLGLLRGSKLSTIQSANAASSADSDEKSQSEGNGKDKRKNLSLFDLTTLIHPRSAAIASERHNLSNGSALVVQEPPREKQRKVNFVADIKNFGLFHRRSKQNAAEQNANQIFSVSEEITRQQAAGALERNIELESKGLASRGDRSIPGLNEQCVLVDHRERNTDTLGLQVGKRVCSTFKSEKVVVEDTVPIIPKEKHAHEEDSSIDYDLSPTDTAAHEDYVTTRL

[2] = test system: HEK293; assay: cells; type: functional, cell-based; conditions: Homo sapiens
[3] = reduction of Shn3 3'UTR-driven luciferase in osteoblasts – cell-based, Clone20 osteoblasts, firefly luciferase, cherry-picked, dose response (AID 624132); type: functional;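 also: firefly luciferase luminescence from reporter carrying the Shn3 3'UTR in osteoblasts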
[4] = test system: HEK293; assay: cells; type: functional, cell-based; conditions: Homo sapiens; remark: listed apart in the source
[5] = test system: HEK293; assay: NOD2 signaling inhibitors in MDP-stimulated cells, cell-based, uHTS, luminescence (AID 2001); type: functional; conditions: Homo sapiens
[6] = loss of viability in HepG2 cells – cell-based, CellTiter-Glo, cherry-picked, cytotoxicity control for Shn3 inhibitor project, dose response (AID 624134); type: functional
[7] = test system: HEK293; assay: inhibition of NOD1-driven NF-kB reporter – cell-based, luminescence, uHTS, primary screen (AID 1578); type: functional; conditions: Homo sapiens
[8] = blockers of HIV-1 envelope-mediated cell-cell fusion – cherry-pick, dose response (AID 652057); type: functional, cell-based
[9] = HIV-1 AD8 envelope cell-cell fusion blockers – cherry-pick, dose response (AID 652062); type: functional, cell-based;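 also: luciferase signal from cell-cell fusion driven by HIV-1 clade B AD8 Env; potency is for inhibitors of fusion seen as a drop in luminescence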
[10] = biological target: Glucose-6-phosphate 1-dehydrogenase (Homo sapiens, UniProt P11413); assay: inhibition of Homo sapiens G6PD, dose series – biochemical, fluorescence, selectivity assay for P. falciparum G6PD inhibitor project, dose response (AID 504792); type: functional
[11] = biological target: Protein-tyrosine kinase 2-beta (Homo sapiens, UniProt Q14289);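 also: potency of inhibitors of PYK2 kinase phosphorylation of poly-GT substrate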
[12] = test system: H9c2; assay: cells; type: functional, cell-based; conditions: Rattus norvegicus, H9c2, Myocardium;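 also: confirmatory concentration-response retest of ultra-high-throughput screening hits for modulation of myocardial damage; cell death induced by hydrogen peroxide oxidative stress; compound pretreatment for 60 min then peroxide exposure for 2 h; potency is for protecting the cells against peroxide damage rather than for killing them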
[13] = biological target: T2, Protein RecA (Mycobacterium tuberculosis, UniProt P9WHJ3); assay: Fluorescence Cell-Free Homogeneous Dose Retest to Identify Inhibitors of RecA-Intein Splicing Activity. [Related pubchem assays (depositor defined):AID2097, AID2223, AID489010, AID492950]; type: functional
T2 sequence (P9WHJ3 whole entry): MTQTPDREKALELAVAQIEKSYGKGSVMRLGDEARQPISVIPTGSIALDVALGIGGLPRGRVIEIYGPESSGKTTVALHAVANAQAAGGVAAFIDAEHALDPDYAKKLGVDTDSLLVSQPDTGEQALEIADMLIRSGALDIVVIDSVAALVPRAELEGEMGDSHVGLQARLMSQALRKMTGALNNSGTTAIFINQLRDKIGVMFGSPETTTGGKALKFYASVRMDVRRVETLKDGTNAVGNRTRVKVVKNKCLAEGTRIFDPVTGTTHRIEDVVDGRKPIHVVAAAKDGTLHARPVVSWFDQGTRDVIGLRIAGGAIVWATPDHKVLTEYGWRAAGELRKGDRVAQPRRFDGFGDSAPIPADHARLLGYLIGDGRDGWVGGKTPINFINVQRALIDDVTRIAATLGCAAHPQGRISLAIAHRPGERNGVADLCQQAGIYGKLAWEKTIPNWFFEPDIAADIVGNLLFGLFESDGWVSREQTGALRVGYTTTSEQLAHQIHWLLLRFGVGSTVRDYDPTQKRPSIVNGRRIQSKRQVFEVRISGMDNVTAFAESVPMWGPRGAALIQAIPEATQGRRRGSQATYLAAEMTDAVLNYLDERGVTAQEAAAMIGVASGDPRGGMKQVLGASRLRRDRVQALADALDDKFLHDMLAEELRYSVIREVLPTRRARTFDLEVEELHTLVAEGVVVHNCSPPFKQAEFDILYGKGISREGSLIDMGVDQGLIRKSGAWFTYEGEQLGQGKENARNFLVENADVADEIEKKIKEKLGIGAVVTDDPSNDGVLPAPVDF

[14] = viability loss in THP-1 monocytes – THP-1 cells, cytotoxicity control for Vif-APOBEC3G degradation inhibitor project, dose response (AID 1117359); type: functional; conditions: THP-1
[15] = biological target: T3, Replicative DNA helicase DnaB (Mycobacterium tuberculosis, UniProt P9WMR3); assay: DnaB intein splicing inhibitors, dose response, biochemical, cell-free fluorescence (AID 449749); type: functional
T3 sequence (P9WMR3 whole entry): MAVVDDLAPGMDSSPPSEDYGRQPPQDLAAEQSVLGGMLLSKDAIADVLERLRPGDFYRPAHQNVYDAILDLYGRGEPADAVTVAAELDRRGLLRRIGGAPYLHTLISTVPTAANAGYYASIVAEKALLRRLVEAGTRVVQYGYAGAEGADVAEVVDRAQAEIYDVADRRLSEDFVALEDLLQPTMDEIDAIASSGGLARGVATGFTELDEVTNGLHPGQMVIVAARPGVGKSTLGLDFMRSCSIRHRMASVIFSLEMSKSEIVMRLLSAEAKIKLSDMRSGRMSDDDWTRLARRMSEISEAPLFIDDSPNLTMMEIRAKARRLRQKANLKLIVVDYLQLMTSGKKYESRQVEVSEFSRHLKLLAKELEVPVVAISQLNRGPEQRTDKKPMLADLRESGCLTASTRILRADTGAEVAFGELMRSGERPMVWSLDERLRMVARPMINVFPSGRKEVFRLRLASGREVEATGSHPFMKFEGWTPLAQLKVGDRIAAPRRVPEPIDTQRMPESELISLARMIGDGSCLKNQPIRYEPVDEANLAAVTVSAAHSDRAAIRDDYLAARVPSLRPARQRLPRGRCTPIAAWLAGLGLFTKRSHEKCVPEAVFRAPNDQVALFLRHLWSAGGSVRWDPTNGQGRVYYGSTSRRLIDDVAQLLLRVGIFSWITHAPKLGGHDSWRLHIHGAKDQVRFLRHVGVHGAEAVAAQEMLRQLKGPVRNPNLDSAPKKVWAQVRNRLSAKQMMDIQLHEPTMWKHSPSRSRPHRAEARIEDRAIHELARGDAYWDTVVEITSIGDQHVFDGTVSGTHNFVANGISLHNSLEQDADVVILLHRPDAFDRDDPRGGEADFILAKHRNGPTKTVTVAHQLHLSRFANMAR

[16] = biological target: T4, High affinity choline transporter 1 (Homo sapiens, UniProt Q9GZV3); assay: human choline transporter blockers, potency – cell-based, 5-point CRC, membrane potential dye, dose response (AID 504840); type: functional
T4 sequence (Q9GZV3 whole entry): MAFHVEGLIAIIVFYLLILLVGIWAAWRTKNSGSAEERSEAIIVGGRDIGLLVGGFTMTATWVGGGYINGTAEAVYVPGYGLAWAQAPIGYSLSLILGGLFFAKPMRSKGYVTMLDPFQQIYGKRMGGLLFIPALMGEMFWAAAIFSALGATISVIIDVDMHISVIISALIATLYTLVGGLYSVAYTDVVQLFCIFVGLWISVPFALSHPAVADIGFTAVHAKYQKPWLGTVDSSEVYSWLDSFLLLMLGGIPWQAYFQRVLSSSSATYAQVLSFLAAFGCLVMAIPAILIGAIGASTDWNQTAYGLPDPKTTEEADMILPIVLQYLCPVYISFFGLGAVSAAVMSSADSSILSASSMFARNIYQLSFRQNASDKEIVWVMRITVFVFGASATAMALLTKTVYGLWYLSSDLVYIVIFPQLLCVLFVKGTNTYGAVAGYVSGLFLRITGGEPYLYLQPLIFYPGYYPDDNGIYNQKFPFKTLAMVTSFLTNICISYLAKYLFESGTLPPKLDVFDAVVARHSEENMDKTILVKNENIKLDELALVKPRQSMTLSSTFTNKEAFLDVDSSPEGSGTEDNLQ

[17] = biological target: Cytochrome P450 2C9 (Homo sapiens, UniProt P11712)
Sequence of Cytochrome P450 2C9 (P11712 whole entry): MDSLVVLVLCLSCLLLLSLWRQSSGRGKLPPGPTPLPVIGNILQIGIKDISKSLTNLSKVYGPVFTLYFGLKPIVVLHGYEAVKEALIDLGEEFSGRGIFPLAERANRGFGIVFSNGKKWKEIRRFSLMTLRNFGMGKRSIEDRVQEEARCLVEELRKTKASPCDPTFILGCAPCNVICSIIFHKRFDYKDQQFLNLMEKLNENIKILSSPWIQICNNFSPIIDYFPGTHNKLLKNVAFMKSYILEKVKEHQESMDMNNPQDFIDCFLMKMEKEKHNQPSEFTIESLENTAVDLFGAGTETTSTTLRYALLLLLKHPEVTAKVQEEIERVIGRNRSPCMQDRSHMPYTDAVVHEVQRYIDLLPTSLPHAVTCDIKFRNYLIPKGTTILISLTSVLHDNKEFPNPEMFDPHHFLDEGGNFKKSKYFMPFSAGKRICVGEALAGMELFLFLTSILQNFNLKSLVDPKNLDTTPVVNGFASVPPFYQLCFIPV

Sequence of Protein-tyrosine kinase 2-beta (Q14289 whole entry): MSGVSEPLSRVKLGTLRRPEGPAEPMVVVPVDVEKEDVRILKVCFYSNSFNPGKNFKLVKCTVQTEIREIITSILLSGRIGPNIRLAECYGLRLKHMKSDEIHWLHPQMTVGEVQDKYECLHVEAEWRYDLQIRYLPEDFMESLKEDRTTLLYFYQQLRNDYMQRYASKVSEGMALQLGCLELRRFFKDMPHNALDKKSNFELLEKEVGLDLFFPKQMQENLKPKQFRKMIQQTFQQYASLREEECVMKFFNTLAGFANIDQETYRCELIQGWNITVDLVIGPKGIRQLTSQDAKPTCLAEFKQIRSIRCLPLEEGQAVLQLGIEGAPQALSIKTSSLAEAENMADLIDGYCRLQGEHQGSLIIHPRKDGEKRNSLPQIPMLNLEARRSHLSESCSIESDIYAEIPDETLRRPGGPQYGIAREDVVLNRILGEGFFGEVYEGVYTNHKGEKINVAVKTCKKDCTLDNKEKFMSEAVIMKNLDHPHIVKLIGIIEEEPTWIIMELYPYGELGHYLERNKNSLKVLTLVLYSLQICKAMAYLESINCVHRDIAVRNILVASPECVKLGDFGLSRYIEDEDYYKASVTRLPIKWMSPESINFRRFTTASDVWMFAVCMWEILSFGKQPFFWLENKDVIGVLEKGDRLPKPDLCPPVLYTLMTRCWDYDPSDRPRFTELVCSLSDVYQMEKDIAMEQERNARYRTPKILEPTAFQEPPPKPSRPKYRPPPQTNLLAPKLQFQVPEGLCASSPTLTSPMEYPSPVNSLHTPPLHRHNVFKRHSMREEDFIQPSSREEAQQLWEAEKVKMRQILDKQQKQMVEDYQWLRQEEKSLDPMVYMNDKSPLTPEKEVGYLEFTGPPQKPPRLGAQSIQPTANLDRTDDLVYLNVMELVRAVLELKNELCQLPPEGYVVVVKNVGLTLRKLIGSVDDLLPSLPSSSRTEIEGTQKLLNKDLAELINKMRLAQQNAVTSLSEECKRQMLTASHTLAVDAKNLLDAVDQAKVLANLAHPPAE
Sequence of Glucose-6-phosphate 1-dehydrogenase (P11413 whole entry): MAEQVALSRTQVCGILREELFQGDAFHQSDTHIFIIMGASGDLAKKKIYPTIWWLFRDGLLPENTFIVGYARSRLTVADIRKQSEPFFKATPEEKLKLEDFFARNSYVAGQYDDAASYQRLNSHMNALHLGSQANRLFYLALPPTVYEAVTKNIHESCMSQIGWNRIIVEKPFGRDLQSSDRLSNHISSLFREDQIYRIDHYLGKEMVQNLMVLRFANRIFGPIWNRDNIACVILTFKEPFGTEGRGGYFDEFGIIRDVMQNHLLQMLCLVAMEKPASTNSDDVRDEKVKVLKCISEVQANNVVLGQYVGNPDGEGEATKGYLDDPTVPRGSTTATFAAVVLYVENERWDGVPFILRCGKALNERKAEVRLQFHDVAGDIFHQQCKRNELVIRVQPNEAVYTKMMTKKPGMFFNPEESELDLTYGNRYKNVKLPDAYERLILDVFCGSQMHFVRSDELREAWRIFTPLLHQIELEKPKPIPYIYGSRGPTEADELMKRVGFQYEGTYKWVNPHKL

## CCn1c(N2CCN(Cc3ccc([N+](=O)[O-])cc3)CC2)nc2ccccc21
[1]
  EC50: 0.133 µM (active)

## O=C(c1ccc2c3c(cccc13)CC2)C1CCCN(CC2CC2)C1 (stereo unspecified)
[1]
  EC50: 0.841 µM (active)

## CSc1cccc(NS(=O)(=O)c2ccc3c(c2)CCN3C(C)=O)c1
[2]
  IC50: > 20 µM (inactive)
[3]
  AC50: 1.49 µM (active)
[4]
  IC50: 10.8 µM (active)
[5]
  IC50: 7.07 µM (active)
[6]
  AC50: 2.79 µM (active)
[7]
  EC50: 2.42 µM (active)

## N#Cc1ccc(CN2CCN(C(=O)CNC(=O)Cc3cccc4ccccc34)CC2)cc1
[8]
  AC50: 57.1 µM (active)
[9]
  AC50: 10.3 µM (active)

## COc1cccc(C2(c3cccc(OC)c3)CC2C(=O)Nc2ccc(F)cc2)c1 (stereo unspecified)
[10]
  IC50: > 80 µM (inactive)

## O=[N+]([O-])c1ccc(N2CCNCC2)c(Cl)c1
[1]
  EC50: 0.596 µM (active)

## COc1cc(C2Nc3ccc4ncccc4c3C3=C2C(=O)CC(C)(C)C3)cc(OC)c1O (stereo unspecified)
[11]
  IC50: 16.4 µM (not active)

## CC1(C)CC2CC(C)(CN2C(=O)COC(=O)c2nnc(O)c3ccccc23)C1 (stereo unspecified)
[12]
  IC50: 10.7 µM (active)

## CC(C)CC(NC(=O)CCl)c1ccccc1 (stereo unspecified)
[13]
  EC50: 4.29 µM (active)
[14]
  CC50: > 40 µM (active)
[15]
  AC50: 320 µM (active)

## COc1nnc(-c2ccc(N3CCCCC3)c(NC(C)=O)c2)c2ccccc12
[11]
  IC50: > 69.5 µM (not active)

## CN(C)c1ccc(NC(=S)N2CCN(c3ncc(C(F)(F)F)cc3Cl)CC2)cc1
[1]
  EC50: 2.66 µM (active)

## Cc1ccc(C(=O)N/C(=C/C=C/c2ccccc2)C(=O)NCc2ccco2)cc1
[16]
  IC50: 17.4 µM (active)
[17]
  AC50: 10 µM (inconclusive)
